pEC50: −log10 of the molar value. Structures can show the parent of a compound that is named as a salt.

One may read the pEC50 as the negative decadic logarithm of the EC50, by convention in mol/L.

The assay has as its target T1, human ALX receptor (Homo sapiens, UniProt P25090).
T1 construct: expressed in transfected cells; host or cells: HEK293 (HEK293-hALXR-Gα16)
T1 sequence (P25090 1-351): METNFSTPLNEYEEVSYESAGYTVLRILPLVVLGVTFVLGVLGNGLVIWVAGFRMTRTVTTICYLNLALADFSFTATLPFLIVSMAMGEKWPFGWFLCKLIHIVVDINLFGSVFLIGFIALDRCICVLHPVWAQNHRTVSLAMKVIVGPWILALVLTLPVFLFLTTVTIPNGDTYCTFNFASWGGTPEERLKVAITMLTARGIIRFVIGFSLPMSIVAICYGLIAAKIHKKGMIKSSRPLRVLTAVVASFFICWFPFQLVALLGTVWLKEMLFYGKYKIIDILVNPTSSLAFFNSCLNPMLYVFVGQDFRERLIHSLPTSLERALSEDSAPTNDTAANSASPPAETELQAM
The experiment in a line: Intracellular calcium measurements (FLIPR) in HEK293-hALXR-Gα16 cells, agonistic activity. The assay is classed as cell-based. The note with it: values normalized to WKYMVm 10 nM. The protocol:
The ALX receptor and FPRL2 agonistic activities of the compounds of formula (I) are determined in accordance with the following experimental method.
Intracellular Calcium Measurements:
Cells expressing recombinant human ALX receptor and the G-protein Gα16 (HEK293-hALXR-Gα16) were grown to 80% confluency in Growing Medium (GM). Cells were detached from culture dishes with a cell dissociation buffer (Invitrogen, 13151-014), and collected by centrifugation at 1,000 rpm at rt for 5 min in Assay Buffer (AB) (equal parts of Hank's BSS (Gibco, 14065-049) and DMEM without Phenol Red (Gibco, 11880-028)). After 60 min incubation at 37° C. under 5% CO2 in AB supplemented with 1 μM Fluo-4 (AM) (Invitrogen, F14202), and 20 mM HEPES (Gibco, 15630-056), the cells were washed and resuspended in AB. They were then seeded onto 384-well FLIPR assay plates (Greiner, 781091) at 50,000 cells in 70 μl per well and sedimented by centrifugation at 1,000 rpm for 1 min. Stock solutions of test compounds were made up at a concentration of 10 mM in DMSO, and serially diluted in AB to concentrations required for activation dose response curves. WKYMVm (Phoenix Peptides) was used as a reference agonist. FLIPR384 or FLIPR Tetra instruments (Molecular Devices) were operated according to the manufacturer's standard instructions, adding 4 μl of test compound dissolved at 10 mM in DMSO and diluted prior to the experiment in assay buffer to obtain the desired final concentration. Changes in fluorescence were monitored before and after the addition of test compounds at lex=488 nm and lem=540 nm. Emission peak values above base level after compounds addition were exported after base line subtraction. Values were normalized to high-level control (WKYMVm compound, 10 nM final concentration) after subtraction of the base line value (AB addition).
Background: Calcium flux is commonly read through the fluorescence of an indicator in the cells.
`O=C(OCC(O)CO)[C@H]1[C@H](C(=O)Nc2ccc(Br)nc2)[C@@H]2CC[C@H]1C21CC1` (relative stereo) [Example 5, (1S,2R,3R,4R)-[(S*)-2,3-Dihydroxypropyl 2-((6-bromopyridin-3-yl)carbamoyl)spiro[bicyclo[2.2.1]heptane-7,1′-cyclopropane]-3-carboxylate]]: the pEC50 was 6.62. Then `O=C(OCC[C@H]1CCNC[C@H]1F)[C@H]1[C@H](C(=O)Nc2ccc(Br)nc2)[C@@H]2CC[C@H]1C21CC1` (relative stereo) [Example 38, (1S,2R,3R,4R)-[2-(cis-3-Fluoro-piperidin-4-yl)ethyl 2-((6-bromopyridin-3-yl)carbamoyl)spiro[bicyclo[2.2.1]heptane-7,1′-cyclopropane]-3-carboxylate]], with 8.74; and `Cc1cc(CNC(=O)[C@H]2[C@H](C(=O)OCC[C@H]3CCNC[C@H]3F)[C@H]3CC[C@@H]2C32CC2)on1` (relative stereo) [Example 39, (1S,2R,3R,4R)-[2-(cis-3-Fluoro-piperidin-4-yl)ethyl 2-(((3-methylisoxazol-5-yl)methyl)carbamoyl)spiro[bicyclo[2.2.1]heptane-7,1′-cyclopropane]-3-carboxylate]], with 8.43; and `Cc1cc(CNC(=O)[C@H]2[C@H](C(=O)O[C@@H]3CCNC[C@H]3F)[C@H]3CC[C@@H]2C32CC2)on1` (relative stereo) [Example 46, (1S,2R,3R,4R)-[(trans-3-Fluoro-piperidin-4-yl) 2-(((3-methylisoxazol-5-yl)methyl)carbamoyl)spiro[bicyclo[2.2.1]heptane-7,1′-cyclopropane]-3-carboxylate]], with 8.01. As to `O=C(O[C@@H]1CCNC[C@H]1F)[C@H]1[C@H](C(=O)Nc2ccc(Br)nc2)[C@@H]2CC[C@H]1C21CC1` (relative stereo) [Example 57, (1S,2R,3R,4R)-[(trans-3-Fluoro-piperidin-4-yl) 2-((6-bromopyridin-3-yl)carbamoyl)spiro[bicyclo[2.2.1]heptane-7,1′-cyclopropane]-3-carboxylate]], the pEC50 is 7.48. With `Cc1cc(CNC(=O)[C@H]2[C@H](C(=O)O[C@H]3CCNC[C@H]3F)[C@H]3CC[C@@H]2C32CC2)on1` (relative stereo) [Example 62, (1S,2R,3R,4R)-[cis-(3-Fluoro-piperidin-4-yl) 2-(((3-methylisoxazol-5-yl)methyl)carbamoyl)spiro[bicyclo[2.2.1]heptane-7,1′-cyclopropane]-3-carboxylate]] the figure was 7.11.

For `O=C(OC[C@H]1CCNC[C@H]1F)[C@H]1[C@H](C(=O)Nc2ccc(Br)nc2)[C@@H]2CC[C@H]1C21CC1` (relative stereo) [Example 64, (1S,2R,3R,4R)-[(cis-3-Fluoro-piperidin-4-yl)methyl 2-((6-bromopyridin-3-yl)carbamoyl)spiro[bicyclo[2.2.1]heptane-7,1′-cyclopropane]-3-carboxylate]], the pEC50 was 6.97.

Turning to `O=C(OC[C@@H]1CCNC[C@H]1F)[C@H]1[C@H](C(=O)Nc2ccc(Br)nc2)[C@@H]2CC[C@H]1C21CC1` (relative stereo) [Example 70, (1S,2R,3R,4R)-[(trans-3-Fluoro-piperidin-4-yl)methyl 2-((6-bromopyridin-3-yl)carbamoyl)spiro[bicyclo[2.2.1]heptane-7,1′-cyclopropane]-3-carboxylate]], the pEC50 was 6.80.

With `O=C(O[C@H]1CCNC[C@H]1F)[C@H]1[C@H](C(=O)Nc2ccc(Br)nc2)[C@@H]2CC[C@H]1C21CC1` (relative stereo) [Example 74, (1S,2R,3R,4R)-[cis-3-Fluoro-piperidin-4-yl 2-((6-bromopyridin-3-yl)carbamoyl)spiro[bicyclo[2.2.1]heptane-7,1′-cyclopropane]-3-carboxylate]], the pEC50 is 6.55. Take `O=C(Nc1ccc(Br)nc1)C1C(C(=O)OCC2CCNCC2)C2CCC1C21CC1` [Example 1, (1S,2R,3R,4R)-[Piperidin-4-ylmethyl 2-((6-bromopyridin-3-yl)carbamoyl)spiro[bicyclo[2.2.1]heptane-7,1′-cyclopropane]-3-carboxylate]]: the pEC50 is 8.09. Then `O=C(OC1CCNCC1)[C@H]1[C@H](C(=O)Nc2ccc(Br)nc2)[C@@H]2CC[C@H]1C21CC1` [Example 2, (1S,2R,3R,4R)-[Piperidin-4-yl 2-((6-bromopyridin-3-yl)carbamoyl)spiro[bicyclo[2.2.1]heptane-7,1′-cyclopropane]-3-carboxylate]], with 7.82; and `Cc1cc(CNC(=O)[C@H]2[C@H](C(=O)OCC3CCNCC3)[C@H]3CC[C@@H]2C32CC2)no1` [Example 3, (1S,2R,3R,4R)-[Piperidin-4-ylmethyl 2-(((5-methylisoxazol-3-yl)methyl)carbamoyl)spiro[bicyclo[2.2.1]heptane-7,1′-cyclopropane]-3-carboxylate]hydrochloride], with 7.64; and `O=C(OCC1CCNCC1)[C@H]1[C@H](C(=O)NCc2ccc(Br)cc2F)[C@@H]2CC[C@H]1C21CC1` [Example 4, (1S,2R,3R,4R)-[Piperidin-4-ylmethyl 2-((4-bromo-2-fluorobenzyl)carbamoyl)spiro[bicyclo[2.2.1]heptane-7,1′-cyclopropane]-3-carboxylate]hydrochloride], with 7.28. With `CN1CCC(OC(=O)[C@H]2[C@H](C(=O)Nc3ccc(Br)nc3)[C@@H]3CC[C@H]2C32CC2)CC1` [Example 6, (1S,2R,3R,4R)-[1-Methylpiperidin-4-yl 2-((6-bromopyridin-3-yl)carbamoyl)spiro[bicyclo[2.2.1]heptane-7,1′-cyclopropane]-3-carboxylate]] the figure was 6.59; with `COCCOC(=O)[C@H]1[C@H](C(=O)Nc2ccc(Br)nc2)[C@@H]2CC[C@H]1C21CC1` [Example 7, (1S,2R,3R,4R)-[2-Methoxyethyl 2-((6-bromopyridin-3-yl)carbamoyl)spiro[bicyclo[2.2.1]heptane-7,1′-cyclopropane]-3-carboxylate]], 6.52; with `CN1C(C)(C)CC(OC(=O)[C@H]2[C@H](C(=O)Nc3ccc(Br)nc3)[C@@H]3CC[C@H]2C32CC2)CC1(C)C` [Example 8, (1S,2R,3R,4R)-[1,2,2,6,6-Pentamethylpiperidin-4-yl 2-((6-bromopyridin-3-yl)carbamoyl)spiro[bicyclo[2.2.1]heptane-7,1′-cyclopropane]-3-carboxylate]], 6.12.

In the case of `O=C(OC1CCCNC1)[C@H]1[C@H](C(=O)Nc2ccc(Br)nc2)[C@@H]2CC[C@H]1C21CC1` (stereo partly drawn) [Example 9, (1S,2R,3R,4R)-[Piperidin-3-yl 2-((6-bromopyridin-3-yl)carbamoyl)spiro[bicyclo[2.2.1]heptane-7,1′-cyclopropane]-3-carboxylate]hydrochloride], the pEC50 was 8.60. With `O=C(OCCC1CCCNC1)[C@H]1[C@H](C(=O)Nc2ccc(Br)nc2)[C@@H]2CC[C@H]1C21CC1` (stereo partly drawn) [Example 10, (1S,2R,3R,4R)-[2-(Piperidin-3-yl)ethyl 2-((6-bromopyridin-3-yl)carbamoyl)spiro[bicyclo[2.2.1]heptane-7,1′-cyclopropane]-3-carboxylate]hydrochloride] the figure was 8.51; with `O=C(OCC[C@@H]1CCCCN1)[C@H]1[C@H](C(=O)Nc2ccc(Br)nc2)[C@@H]2CC[C@H]1C21CC1` [Example 11, (1S,2R,3R,4R)-[(S)-2-(Piperidin-2-yl)ethyl 2-((6-bromopyridin-3-yl)carbamoyl)spiro[bicyclo[2.2.1]heptane-7,1′-cyclopropane]-3-carboxylate]hydrochloride], 8.06; with `O=C(OCC1CCCNC1)[C@H]1[C@H](C(=O)Nc2ccc(Br)nc2)[C@@H]2CC[C@H]1C21CC1` (stereo partly drawn) [Example 12, (1S,2R,3R,4R)-[Piperidin-3-ylmethyl 2-((6-bromopyridin-3-yl)carbamoyl)spiro[bicyclo[2.2.1]heptane-7,1′-cyclopropane]-3-carboxylate]hydrochloride], 7.81.

For `O=C(O[C@@H]1CCNC1)[C@H]1[C@H](C(=O)Nc2ccc(Br)nc2)[C@@H]2CC[C@H]1C21CC1` [Example 13, (1S,2R,3R,4R)-[(R)-Pyrrolidin-3-yl 2-((6-bromopyridin-3-yl)carbamoyl)spiro[bicyclo[2.2.1]heptane-7,1′-cyclopropane]-3-carboxylate]hydrochloride], the pEC50 is 7.75.

Source of the values: patent publication US9187435B2, “Bridged Spiro[2.4]heptane ester derivatives” (Actelion Pharmaceuticals Ltd., priority 2010, dated 2015).
